According to US20080076770A1, “SOLUBLE EPOXIDE HYDROLASE INHIBITORS” (Arete Therapeutics, Inc., priority 2006, published 2008):

How the values were obtained:
[1] = test system: soluble epoxide hydrolase (sEH); test: Fluorescent assay for mouse and human soluble epoxide hydrolase (CMNPC substrate); type: biochemical; details: recombinant sEH, CMNPC substrate 5 μM, 30° C
Text: Fluorescent Assay for Mouse and Human Soluble Epoxide Hydrolase
Recombinant mouse sEH (MsEH) and human sEH (HsEH) were produced in a baculovirus expression system as previously reported. Grant et al., J. Biol. Chem., 268:17628-17633 (1993); Beetham et al., Arch. Biochem. Biophys., 305:197-201 (1993). The expressed proteins were purified from cell lysate by affinity chromatography. Wixtrom et al., Anal. Biochem., 169:71-80 (1988). Protein concentration was quantified using the Pierce BCA assay using bovine serum albumin as the calibrating standard. The preparations were at least 97% pure as judged by SDS-PAGE and scanning densitometry. They contained no detectable esterase or glutathione transferase activity which can interfere with the assay. The assay was also evaluated with similar results in crude cell lysates or homogenate of tissues.
The IC50s for each inhibitor were according to the following procedure: Substrate: [drawing 66]
Cyano(2-methoxynaphthalen-6-yl)methyl (3-phenyloxiran-2-yl)methyl carbonate (CMNPC; Jones P. D. et. al.; Analytical Biochemistry 2005; 343: pp. 66-75)
Bis/Tris HCl 25 mM pH 7.0 containing 0.1 mg/mL of BSA (buffer A)
CMNPC at 0.25 mM in DMSO.
Mother solution of enzyme in buffer A (Mouse sEH at 6 μg/mL and Human sEH at 5 μg/mL).
Inhibitor dissolved in DMSO at the appropriate concentration.
In a black 96 well plate, fill all the wells with 150 μL of buffer A.
Add 2 μL of DMSO in well A2 and A3, and then add 2 μL of inhibitor solution in A1 and A4 through A 12.
Add 150 μL of buffer A in row A, then mix several time and transfer 150 μL to row B. Repeat this row operation up to row H. The 150 μL removed from row H go to the trash.
Add 20 μL of buffer A in column 1 and 2, then add 20 μL of enzyme solution to column 3 to 12.
Incubate the plate for 5 minutes in the plate reader at 30° C.
During incubation prepare the working solution of substrate by mixing 3.68 mL of buffer A (4×0.920 mL) with 266 μL (2×133 μL (2×133 μL) of substrate solution).
At t=0, add 30 μL of working substrate solution with multi-channel pipette labeled “Briggs 303” and start the reading ([S]final: 5 μM).
Read with ex: 330 nm (20 nm) and em: 465 nm (20 nm) every 30 second for 10 minutes. The velocities are used to analyze and calculate the IC50s.

melting point [°C]	% I ([1]; compound concentration 50 nM) [%]	% I ([1]; compound concentration 500 nM) [%]	SMILES
272 to 276			O=C(Nc1ccc(-n2ccnc2)cc1)NC12CC3CC(CC(C3)C1)C2 [Compound 1, 1-Adamantan-1-yl-3-[4-(1H-imidazol-1-yl)-phenyl]-urea]
> 300	82		O=C(Nc1ccc(N2CCCC2=O)cc1)NC12CC3CC(CC(C3)C1)C2 [Compound 5, 1-Adamantan-1-yl-3-[4-(2-oxo-pyrrolidin-1-yl)-phenyl]-urea]
239 to 242		88	O=C(Nc1cccc(N2CCCC2=O)c1)NC12CC3CC(CC(C3)C1)C2 [Compound 10, 1-Adamantan-1-yl-3-[3-(2-oxo-pyrrolidin-1-yl)-phenyl]-urea]
209 to 213	92		O=C(Nc1ccc(-n2ccnc2)cc1)Nc1ccc(C(F)(F)F)cc1 [Compound 11, 1-(4-(1H-imidazol-1-yl)-phenyl)-3-(4-trifluoromethyl-phenyl)-urea]
234 to 238	96		Cc1nccn1-c1ccc(NC(=O)Nc2ccc(C(F)(F)F)cc2)cc1 [Compound 12, 1-[4-(2-methyl-1H-imidazol-1-yl)-phenyl]-3-(4-trifluoromethyl-phenyl)-urea]
221 to 224	95		O=C(Nc1ccc(-n2cnc(Cl)c2Cl)cc1)Nc1ccc(C(F)(F)F)cc1 [Compound 13, 1-[4-(4,5-dichloro-1H-imidazol-1-yl)-phenyl]-3-(4-trifluoromethyl-phenyl)-urea]
228 to 232	87		O=C(Nc1ccc(N2CCOCC2)cc1)Nc1ccc(C(F)(F)F)cc1 [Compound 14, 1-(4-Morpholin-4-yl-phenyl)-3-(4-trifluoromethyl-phenyl)-urea]
282 to 285	74		O=C(Nc1ccc(N2CCCC2=O)cc1)Nc1ccc(C(F)(F)F)cc1 [Compound 15]
240 to 244	79		O=C(Nc1ccc(C(F)(F)F)cc1)Nc1cccc(N2CCOCC2)c1 [Compound 19, 1-(3-Morpholin-4-yl-phenyl)-3-(4-trifluoromethyl-phenyl)-urea]
220 to 224	84		O=C(Nc1ccc(C(F)(F)F)cc1)Nc1cccc(N2CCCC2=O)c1 [Compound 20, 1-[3-(2-Oxo-pyrrolidin-1-yl)-phenyl]-3-(4-trifluoromethyl-phenyl)-urea]
